Results on four molecules are retold here after patent US6710032B1, “In situ formation of CLA” (University of Maryland, priority 1998, dated 2004).

Data set [1] has as its system C57/B1/6J mice. Put plainly: Example 6: mouse milk fat and milk/fecal fatty acids when fed 18:1 isomer diets. The conditions noted are these: for Milk fat on day 10 versus day 6 of lactation: isomer about 25% of dietary fat, fed four days, creamatocrit; for Level of the test isomer in milk, % of the fat: day 10, fed the isomer diet. Format: in vivo. From the text: C57/B1/6J mice fed a control diet (10 wt % fat) were switched to one of four isomer diets at day 6 of lactation after milk collection. Approximately 25% of the dietary fat (5 caloric %) during the treatment period was replaced with one of four specific isomers of oleic acid, either cis-9; cis-11; trans-9 or trans-11, other diet components were identical. The mice consumed these diets ad libitum for four days and were milked again on day 10 of lactation. Milk and fecal fatty acid composition was analyzed as fatty acid methyl esters by GC. Specific isomers were identified by relative retention times. Milk fat percentage was determined by the creamatocrit method and differences between day 6 and day 10 fat percentages were evaluated by a paired t-test.
A lactating mouse is milked after injection of oxytocin(0.2 ml of a 1 IU/ml solution) immediately prior to milking. Milking is accomplished by creating a suction through tube 26 and inserting the funnel end 28 or tube 26 onto the teat of a lactating mouse in the upside-down position. As milk is collected into the funnel, a small capillary tube (i.e. the same as that used to collect human blood samples) is manually positioned within the funnel to collect milk by capillary action. Failure to promptly collect the milk will expose the milk to evaporation thus increasing fat content of the sample.

The test system of data set [2] is cows. As to the kind of experiment: Ingestion of C18 trans 11 fats in cows, milk fat levels. The conditions noted are these: in vivo.

For `CCCCCCCC/C=C\CCCCCCCC(=O)O` [Cis-9, cis-9 18:1 fatty acid], the “Milk fat on day 10 versus day 6 of lactation” value in data set [1] is “identical fat values on days 6 and 10”.

As to `CCCCCC/C=C\CCCCCCCCCC(=O)O` [cis-11, cis-11 18:1 fatty acid], in data set [1], the “Level of the test isomer in milk, % of the fat” value (“Level … % of the fat” for short) was determined as 10% and the “Milk fat on day 10 versus day 6 of lactation” value is “not statistically different”.

For the molecule `CCCCCCCC/C=C/CCCCCCCC(=O)O` [trans-9, trans-9 18:1 fatty acid], in data set [1], the “Level … % of the fat” value was determined as 5.8% and the “Milk fat on day 10 versus day 6 of lactation” value is given as “statistically lower”.

Consider `CCCCCC/C=C/CCCCCCCCCC(=O)O` [trans-11, trans-11 18:1 fatty acid], for which the “Milk fat levels in cows” value in data set [2] is “do not reduce milk fat levels”. In addition, in data set [1], the “Level … % of the fat” value came out at 3% and the “Milk fat on day 10 versus day 6 of lactation” value is on record as “not statistically different”. In data set [1] (listed as C18:1 t-11), the “Milk fat on day 10 versus day 6 of lactation” value is given as “does not reduce milk fat”.
